Data: ChEMBL document CHEMBL6096696, “Structure-Activity Relationship Studies of an Autophagy Inhibitor That Targets the ATG14L-Beclin1 Protein-Protein Interaction Reveal Modifications That Improve Potency and Solubility and Maintain Selectivity” (J Med Chem, 2025)
pIC50: −log10 of the molar value. In brackets after ≈: the same amount, converted by molar mass. Activity calls are given as the source filed them. The calls are words filed in the database; no cut-off is given here.

Experiments:
HEK293T [1] = test: Inhibition of C-terminal Nano-luc tagged ATG14L/C-terminal Halo-tagged Beclin 1 (unknown origin) PPI tranfected with HEK293T cells using […] at 100 uM incubated for 24 hrs by […] assay relative to control; format: cell-based; settings: Homo sapiens, values are per cent of control
[2] = Kinetic aqueous solubility of compound in PBS at pH 7.4 by absorbance based analysis; format: physicochemical; settings: read-out: Kinetic_solubility
HEK293T [3] = test: Inhibition of C-terminal Nano-luc tagged UVRAG/C-terminal Halo-tagged Beclin 1 (unknown origin) PPI tranfected with HEK293T cells using […] at 100 uM incubated for 24 hrs by […] assay relative to control; format: cell-based; settings: Homo sapiens, values are per cent of control
[4] = Selectivity ratio of inhibition of C-terminal Nano-luc tagged UVRAG/C-terminal Halo-tagged Beclin 1 (unknown origin) PPI tranfected with HEK293T cells to inhibition of C-terminal Nano-luc tagged ATG14L/C-terminal Halo-tagged Beclin 1 (unknown origin) PPI tranfected with HEK293T cells
HeLa [5] = test: Cytotoxicity against human HeLa cells expressing eGFP-LC3 at 100 uM; format: functional, cell-based
[6] = Inhibition of C-terminal Nano-luc tagged ATG14L/C-terminal Halo-tagged Beclin 1 (unknown origin) PPI tranfected with HEK293T cells using […] incubated for 24 hrs by […] assay; format: cell-based, Homo sapiens
A549 [7] = test: Inhibition of autophagy in human A549 cells assessed as increase in fluorescence at 100 uM preincubated with DQ-BSA for 1 hr followed by compound addition and measured after 4 hrs by Hoechst 33342 staining based automated fluorescence microscopy analysis; format: functional, cell-based
HeLa [8] = test: Inhibition of autophagy in human HeLa cells expressing eGFP-LC3 at 50 uM preincubated for 20 hrs followed by chloroquine addition and measured after 4 hrs by Hoechst 33342 staining based automated fluorescence microscopy analysis; format: functional, cell-based; settings: time 24.0 hrs
A549 [9] = test: Inhibition of autophagy in human A549 cells assessed as increase in fluorescence at 12.5 uM preincubated with DQ-BSA for 1 hr followed by compound addition and measured after 4 hrs by Hoechst 33342 staining based automated fluorescence microscopy analysis; format: functional, cell-based
A549 [10] = test: Inhibition of autophagy in human A549 cells assessed as increase in fluorescence at 20 uM preincubated with DQ-BSA for 1 hr followed by compound addition and measured after 4 hrs by Hoechst 33342 staining based automated fluorescence microscopy analysis; format: functional, cell-based
HeLa [11] = test: Inhibition of autophagy in human HeLa cells expressing eGFP-LC3 assessed as increase in LC3-II at 100 uM preincubated for 20 hrs followed by chloroquine addition and measured after 4 hrs by Hoechst 33342 staining based automated fluorescence microscopy analysis; format: functional, cell-based; settings: time 24.0 hrs
[12] = target: Beclin 1-associated autophagy-related key regulator (Homo sapiens) (UniProt Q6ZNE5); test: Induction of stabilization of ATG14L in human A549 cells assessed as increase in melting temperature at 100 uM incubated for 24 hrs by CETSA method; format: cell-based
A549 [13] = test: Inhibition of autophagy in human A549 cells assessed as increase in fluorescence at 100 nM preincubated with DQ-BSA for 1 hr followed by compound addition and measured after 4 hrs by Hoechst 33342 staining based automated fluorescence microscopy analysis; format: functional, cell-based
[14] = Inhibition of C-terminal Nano-luc tagged UVRAG/C-terminal Halo-tagged Beclin 1 (unknown origin) PPI tranfected with HEK293T cells using […] incubated for 24 hrs by […] assay; format: cell-based, Homo sapiens
HeLa [15] = test: Inhibition of autophagy in human HeLa cells expressing eGFP-LC3 assessed as decrease in GFP puncta/cell at 100 uM preincubated for 20 hrs followed by chloroquine addition and measured after 4 hrs by Hoechst 33342 staining based automated fluorescence microscopy analysis; format: functional; settings: time 24.0 hrs
A549 [16] = test: Inhibition of autophagy in human A549 cells assessed as increase in fluorescence at 100 uM measured after 4 hrs by Hoechst 33342 staining based […] microscopy analysis; format: functional, cell-based

Beclin 1-associated autophagy-related key regulator (Homo sapiens), sequence (Q6ZNE5 whole entry): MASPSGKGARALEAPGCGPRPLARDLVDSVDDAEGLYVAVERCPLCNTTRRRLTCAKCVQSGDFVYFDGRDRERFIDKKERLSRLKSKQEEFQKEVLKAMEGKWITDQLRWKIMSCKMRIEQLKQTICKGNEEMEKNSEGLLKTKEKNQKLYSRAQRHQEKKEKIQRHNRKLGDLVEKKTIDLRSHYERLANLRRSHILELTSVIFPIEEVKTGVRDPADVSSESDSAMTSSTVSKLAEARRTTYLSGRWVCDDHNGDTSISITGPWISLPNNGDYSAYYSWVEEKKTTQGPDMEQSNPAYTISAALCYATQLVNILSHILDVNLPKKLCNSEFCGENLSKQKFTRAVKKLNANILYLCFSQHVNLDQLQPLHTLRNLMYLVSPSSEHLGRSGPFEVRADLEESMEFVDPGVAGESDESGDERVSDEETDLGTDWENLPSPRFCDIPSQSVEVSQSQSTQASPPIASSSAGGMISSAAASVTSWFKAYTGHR

## O=C1COc2ccc(-c3ccccc3C(F)(F)F)cc2N1Cc1noc(C2CCC2)n1
HEK293T [1]
  residual binding, % of control: 77.4%
[2]
  solubility kinetic: > 100 µM
HEK293T [3]
  residual binding, % of control: 98%
[4]
  Selectivity ratio: 1.27
HeLa [5]
  Activity: Active; Compound Showed Less Cytotoxicity

## CCCN1C(=O)COc2ccc(-c3ccc(Cl)cc3Cl)cc21
HEK293T [1]
  residual binding, % of control: 65.8%
[2]
  solubility kinetic: > 100 µM
HEK293T [3]
  residual binding, % of control: 82.6%
[4]
  Selectivity ratio: 1.25
[6]
  pIC50: 4.54
A549 [7]
  inhibition: Active
HeLa [5]
  Activity: Active

## CCCN1C(=O)COc2ccc(-c3cccc(OC(F)(F)F)c3)cc21
HEK293T [1]
  residual binding, % of control: 75.3%
[2]
  solubility kinetic: > 100 µM
HEK293T [3]
  residual binding, % of control: 92.4%
[4]
  Selectivity ratio: 1.22
[6]
  pIC50: 4.61
A549 [7]
  inhibition: Active
HeLa [5]
  Activity: Active

## Cc1cccc(-c2ccc3c(c2)N(Cc2noc(C4CCC4)n2)C(=O)CO3)c1Cl
HEK293T [1]
  residual binding, % of control: 80.5%
[2]
  solubility kinetic: > 100 µM
HEK293T [3]
  residual binding, % of control: 117%
[4]
  Selectivity ratio: 1.45
HeLa [5]
  Activity: Active; Compound Showed Less Cytotoxicity

## CCCN1C(=O)COc2ccc(-c3ccccc3)cc21
HEK293T [1]
  residual binding, % of control: 63.2%
[2]
  solubility kinetic: > 100 µM
HEK293T [3]
  residual binding, % of control: 95.7%
[4]
  Selectivity ratio: 1.51
[6]
  pIC50: 4.25
A549 [7]
  inhibition: Active
HeLa [5]
  Activity: Active

## CCCN1C(=O)COc2ccc(-c3ccncc3)cc21
HEK293T [1]
  residual binding, % of control: 106%
[2]
  solubility kinetic: > 100 µM
HEK293T [3]
  residual binding, % of control: 108%
[4]
  Selectivity ratio: 1.03
HeLa [5]
  Activity: Active

## CCCN1C(=O)COc2ccc(-c3ccccc3C)cc21
HEK293T [1]
  residual binding, % of control: 65%
[2]
  solubility kinetic: > 100 µM
HEK293T [3]
  residual binding, % of control: 84.6%
[4]
  Selectivity ratio: 1.3
[6]
  pIC50: 4.37
A549 [7]
  inhibition: Active
HeLa [5]
  Activity: Active

## CCCN1C(=O)COc2ccc(-c3cccc(C)c3)cc21
HEK293T [1]
  residual binding, % of control: 57.3%
[2]
  solubility kinetic: > 100 µM
HEK293T [3]
  residual binding, % of control: 91.5%
[4]
  Selectivity ratio: 1.59
[6]
  pIC50: 4.38
A549 [7]
  inhibition: Active
HeLa [5]
  Activity: Active

## CCCN1C(=O)COc2ccc(-c3ccccc3O)cc21
HEK293T [1]
  residual binding, % of control: 82.5%
[2]
  solubility kinetic: > 100 µM
HEK293T [3]
  residual binding, % of control: 104%
[4]
  Selectivity ratio: 1.26
HeLa [5]
  Activity: Active

## O=C1COc2ccc(-c3cccc(Cl)c3)cc2N1Cc1noc(C2CCC2)n1
HEK293T [1]
  residual binding, % of control: 85.1%
[2]
  solubility kinetic: > 100 µM
HEK293T [3]
  residual binding, % of control: 116%
[4]
  Selectivity ratio: 1.32
HeLa [5]
  Activity: Active
HeLa [8]
  inhibition: inactive

## O=C1COc2ccc(-c3cccc(Cl)c3Cl)cc2N1Cc1noc(C2CCC2)n1
HEK293T [1]
  residual binding, % of control: 86.8%
[2]
  solubility kinetic: > 100 µM
HEK293T [3]
  residual binding, % of control: 101%
[4]
  Selectivity ratio: 1.17
HeLa [5]
  Activity: Active; Compound Showed Less Cytotoxicity

## C[C@@H]1COCCN1c1cc(=O)n2c(n1)N(Cc1cncc(Cl)c1)[C@H](C(F)(F)F)CC2
A549 [9]
  inhibition: inactive

## CC(C)c1ccccc1-c1ccc2c(c1)N(Cc1noc(C3CCC3)n1)C(=O)CO2
HEK293T [1]
  residual binding, % of control: 71.6%
[2]
  solubility kinetic: > 100 µM
HEK293T [3]
  residual binding, % of control: 92.9%
[4]
  Selectivity ratio: 1.29
HeLa [5]
  Activity: Active; Compound Showed Less Cytotoxicity

## Cc1cccc(NS(=O)(=O)c2ccc3c(c2)N(Cc2noc(C4CCC4)n2)C(=O)CO3)c1C
HEK293T [1]
  residual binding, % of control: 60.6%
[2]
  solubility kinetic: 50 µM (≈ 23.4 µg/mL)
[6]
  pIC50: 4.47

## Cc1c(Cl)cccc1-c1ccc2c(c1)N(Cc1noc(C3CCC3)n1)C(=O)CO2
HEK293T [1]
  residual binding, % of control: 79.7%
[2]
  solubility kinetic: > 100 µM
HEK293T [3]
  residual binding, % of control: 120%
[4]
  Selectivity ratio: 1.5
HeLa [5]
  Activity: Active; Compound Showed Less Cytotoxicity

## CCN(CC)CCCC(C)Nc1ccnc2cc(Cl)ccc12 (stereo not given)
A549 [10]
  inhibition: inactive

## CCN1C(=O)COc2ccc(S(=O)(=O)Nc3cccc(C)c3C)cc21
HEK293T [1]
  residual binding, % of control: 95.9%
[2]
  solubility kinetic: > 100 µM
HeLa [11]
  inhibition: Active
[12]
  Activity: inactive

## O=C1COc2ccc(-c3ccc(Cl)cc3Cl)cc2N1Cc1noc(C2CCC2)n1
HEK293T [1]
  residual binding, % of control: 89.7%
[2]
  solubility kinetic: > 100 µM
HEK293T [3]
  residual binding, % of control: 105%
[4]
  Selectivity ratio: 1.17
HeLa [5]
  Activity: Active
HeLa [8]
  inhibition: inactive

## Nc1ncc(-c2ccnc(Nc3ccncc3)n2)c(CC2CC2)n1
A549 [9]
  inhibition: inactive

## Cc1cccc(-c2ccc3c(c2)N(Cc2noc(C4CCC4)n2)C(=O)CO3)c1C
HEK293T [1]
  residual binding, % of control: 73.1%
[2]
  solubility kinetic: > 100 µM
HEK293T [3]
  residual binding, % of control: 95.3%
[4]
  Selectivity ratio: 1.3
[6]
  pIC50: 4.90
HeLa [5]
  Activity: Active; Compound Showed Less Cytotoxicity
HeLa [8]
  inhibition: Active

## CO/C1=C\C(C)=C\[C@@H](C)[C@@H](O)[C@@H](C)C/C(C)=C/C=C/[C@H](OC)[C@@H]([C@@H](C)[C@@H](O)[C@H](C)[C@@]2(O)C[C@@H](O)[C@H](C)[C@@H](C(C)C)O2)OC1=O
A549 [13]
  inhibition: inactive

## CCCN1C(=O)COc2ccc(-c3cccc(C)c3C)cc21
HEK293T [1]
  residual binding, % of control: 63%
[2]
  solubility kinetic: > 100 µM
HEK293T [3]
  residual binding, % of control: 77.7%
[4]
  Selectivity ratio: 1.23
[6]
  pIC50: 4.49
[14]
  pIC50: 4.37
A549 [7]
  inhibition: Active
HeLa [5]
  Activity: Active

## CCCN1C(=O)COc2ccc(-c3ccccc3OC)cc21
HEK293T [1]
  residual binding, % of control: 79.5%
[2]
  solubility kinetic: > 100 µM
HEK293T [3]
  residual binding, % of control: 100%
[4]
  Selectivity ratio: 1.26
HeLa [5]
  Activity: Active

## CCCN1C(=O)COc2ccc(-c3ccc(F)cc3F)cc21
HEK293T [1]
  residual binding, % of control: 63.8%
[2]
  solubility kinetic: > 100 µM
HEK293T [3]
  residual binding, % of control: 84.2%
[4]
  Selectivity ratio: 1.32
HeLa [5]
  Activity: Active

## O=C1COc2ccc(-c3ccccc3Cl)cc2N1Cc1noc(C2CCC2)n1
HEK293T [1]
  residual binding, % of control: 89.9%
[2]
  solubility kinetic: > 100 µM
HEK293T [3]
  residual binding, % of control: 106%
[4]
  Selectivity ratio: 1.17
HeLa [5]
  Activity: Active; Compound Showed Less Cytotoxicity

## Cc1cccc(-c2ccc3c(c2)N(Cc2noc(C4CCC4)n2)C(=O)CO3)c1
HEK293T [1]
  residual binding, % of control: 90.8%
[2]
  solubility kinetic: > 100 µM
HEK293T [3]
  residual binding, % of control: 102%
[4]
  Selectivity ratio: 1.13

## CCCN1C(=O)COc2ccc(S(=O)(=O)Nc3cccc(C)c3C)cc21
HEK293T [1]
  residual binding, % of control: 72.3%
[2]
  solubility kinetic: > 100 µM
[6]
  pIC50: 4.25
HeLa [11]
  inhibition: Active
HeLa [15]
  inhibition: Active; Compared With Chloroquine And Compound 1E
[12]
  Activity: Active
A549 [7]
  inhibition: Active; Compound Showed Normal Functioning Of Lysosomes And Endosomal Trafficking
A549 [16]
  inhibition: Active
